Source: the kinase profiling compilation of Christmann-Franck et al. (2016)

Experiments:
Assay in all cases: KINOMEscan competition binding
Conditions in all cases: compound 10.0 µM
[1] = system: EGFR (human), P00533 [747-751 del / S ins]
AURKB (human) = AURKB (human) (UniProt Q96GD4)
CDK7 (human) = CDK7 (human) (UniProt P50613)
ULK2 (human) = ULK2 (human) (UniProt Q8IYT8)
STK11 (human) = STK11 (human) (UniProt Q15831)
RIOK3 (human) = RIOK3 (human) (UniProt O14730)
[2] = system: EGFR (human), P00533 [G719S]
DAPK2 (human) = DAPK2 (human) (UniProt Q9UIK4)
PHKG2 (human) = PHKG2 (human) (UniProt P15735)
CLK2 (human) = CLK2 (human) (UniProt P49760)
MYLK3 (human) = MYLK3 (human) (UniProt Q32MK0)
ACVR2B (human) = ACVR2B (human) (UniProt Q13705)
DYRK1B (human) = DYRK1B (human) (UniProt Q9Y463)
STK17A (human) = STK17A (human) (UniProt Q9UEE5)
STK16 (human) = STK16 (human) (UniProt O75716)
CHUK (human) = CHUK (human) (UniProt O15111)
MAP4K2 (human) = MAP4K2 (human) (UniProt Q12851)
PIM3 (human) = PIM3 (human) (UniProt Q86V86)
RIOK1 (human) = RIOK1 (human) (UniProt Q9BRS2)
CSNK1G1 (human) = CSNK1G1 (human) (UniProt Q9HCP0)
PIM2 (human) = PIM2 (human) (UniProt Q9P1W9)
CAMKK1 (human) = CAMKK1 (human) (UniProt Q8N5S9)
MAPK15 (human) = MAPK15 (human) (UniProt Q8TD08)
CLK4 (human) = CLK4 (human) (UniProt Q9HAZ1)
TAOK1 (human) = TAOK1 (human) (UniProt Q7L7X3)
DMPK (human) = DMPK (human) (UniProt Q09013)

Sequence of CHUK (human) (O15111 whole entry, looked up): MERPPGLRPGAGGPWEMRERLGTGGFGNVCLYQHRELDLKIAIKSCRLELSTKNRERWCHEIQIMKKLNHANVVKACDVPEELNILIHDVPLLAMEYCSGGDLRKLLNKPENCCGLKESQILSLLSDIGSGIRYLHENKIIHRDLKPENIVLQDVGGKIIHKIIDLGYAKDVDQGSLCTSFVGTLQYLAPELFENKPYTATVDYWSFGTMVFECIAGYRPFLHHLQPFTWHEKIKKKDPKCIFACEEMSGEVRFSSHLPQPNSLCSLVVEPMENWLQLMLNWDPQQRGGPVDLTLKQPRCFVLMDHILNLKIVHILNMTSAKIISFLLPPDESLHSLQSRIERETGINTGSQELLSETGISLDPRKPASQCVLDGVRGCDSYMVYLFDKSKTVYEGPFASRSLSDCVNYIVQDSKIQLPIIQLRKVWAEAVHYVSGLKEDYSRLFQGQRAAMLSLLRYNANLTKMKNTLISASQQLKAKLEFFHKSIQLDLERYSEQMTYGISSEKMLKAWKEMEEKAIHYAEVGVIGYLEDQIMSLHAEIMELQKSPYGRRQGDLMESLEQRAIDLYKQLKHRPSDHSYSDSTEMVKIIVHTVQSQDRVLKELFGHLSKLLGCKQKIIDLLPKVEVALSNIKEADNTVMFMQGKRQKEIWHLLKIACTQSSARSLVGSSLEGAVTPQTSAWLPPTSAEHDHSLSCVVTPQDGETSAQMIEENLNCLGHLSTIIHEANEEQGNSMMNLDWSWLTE
Sequence of PIM2 (human) (Q9P1W9 whole entry, looked up): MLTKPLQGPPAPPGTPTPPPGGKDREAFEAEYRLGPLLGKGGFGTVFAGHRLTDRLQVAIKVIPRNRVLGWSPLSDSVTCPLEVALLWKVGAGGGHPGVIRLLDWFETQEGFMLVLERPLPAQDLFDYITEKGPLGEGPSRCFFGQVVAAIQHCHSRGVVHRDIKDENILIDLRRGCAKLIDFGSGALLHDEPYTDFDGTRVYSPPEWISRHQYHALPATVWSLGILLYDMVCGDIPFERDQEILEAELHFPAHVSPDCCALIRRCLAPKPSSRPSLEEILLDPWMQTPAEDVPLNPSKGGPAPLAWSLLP
Sequence of ACVR2B (human) (Q13705 whole entry, looked up): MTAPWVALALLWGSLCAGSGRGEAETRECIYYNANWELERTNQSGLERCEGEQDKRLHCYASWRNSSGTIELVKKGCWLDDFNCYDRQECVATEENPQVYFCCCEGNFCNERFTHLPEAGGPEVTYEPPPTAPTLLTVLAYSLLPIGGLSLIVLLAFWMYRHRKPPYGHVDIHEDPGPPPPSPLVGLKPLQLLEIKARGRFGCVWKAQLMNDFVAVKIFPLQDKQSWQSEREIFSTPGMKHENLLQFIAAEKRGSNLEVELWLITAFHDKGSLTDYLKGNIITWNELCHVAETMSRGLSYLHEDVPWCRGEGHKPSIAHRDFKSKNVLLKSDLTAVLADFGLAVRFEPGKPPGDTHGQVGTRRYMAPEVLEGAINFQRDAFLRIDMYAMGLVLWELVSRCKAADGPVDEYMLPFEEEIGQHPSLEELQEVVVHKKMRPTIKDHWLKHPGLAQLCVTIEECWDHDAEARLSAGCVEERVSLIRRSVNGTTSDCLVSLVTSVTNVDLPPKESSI
Sequence of ULK2 (human) (Q8IYT8 whole entry, looked up): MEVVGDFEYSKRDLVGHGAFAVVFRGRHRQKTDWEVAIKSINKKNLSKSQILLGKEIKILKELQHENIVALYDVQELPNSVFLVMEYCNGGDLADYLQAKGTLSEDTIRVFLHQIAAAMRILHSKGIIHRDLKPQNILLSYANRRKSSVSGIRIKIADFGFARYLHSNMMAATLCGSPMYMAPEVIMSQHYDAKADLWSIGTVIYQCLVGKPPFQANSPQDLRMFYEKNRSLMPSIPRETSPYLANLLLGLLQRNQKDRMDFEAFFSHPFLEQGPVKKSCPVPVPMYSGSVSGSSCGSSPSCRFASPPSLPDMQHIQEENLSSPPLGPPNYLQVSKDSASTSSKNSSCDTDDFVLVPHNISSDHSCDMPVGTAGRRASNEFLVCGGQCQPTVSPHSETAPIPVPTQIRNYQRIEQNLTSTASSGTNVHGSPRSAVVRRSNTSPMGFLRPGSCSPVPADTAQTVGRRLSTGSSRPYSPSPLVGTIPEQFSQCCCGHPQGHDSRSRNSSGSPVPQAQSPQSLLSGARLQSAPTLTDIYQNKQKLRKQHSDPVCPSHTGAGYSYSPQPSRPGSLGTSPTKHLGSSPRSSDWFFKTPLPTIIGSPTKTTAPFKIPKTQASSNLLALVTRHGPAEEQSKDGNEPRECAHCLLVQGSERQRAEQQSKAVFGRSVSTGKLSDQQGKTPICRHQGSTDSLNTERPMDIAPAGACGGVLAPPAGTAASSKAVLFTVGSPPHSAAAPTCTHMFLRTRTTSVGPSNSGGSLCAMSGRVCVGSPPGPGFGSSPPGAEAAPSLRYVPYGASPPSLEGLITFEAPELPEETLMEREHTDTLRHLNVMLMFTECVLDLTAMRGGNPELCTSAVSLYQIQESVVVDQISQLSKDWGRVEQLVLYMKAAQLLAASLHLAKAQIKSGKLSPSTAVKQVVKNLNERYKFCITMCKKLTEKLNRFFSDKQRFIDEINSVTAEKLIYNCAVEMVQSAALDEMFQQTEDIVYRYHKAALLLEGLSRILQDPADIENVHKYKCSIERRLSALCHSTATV
Sequence of CSNK1G1 (human) (Q9HCP0 whole entry, looked up): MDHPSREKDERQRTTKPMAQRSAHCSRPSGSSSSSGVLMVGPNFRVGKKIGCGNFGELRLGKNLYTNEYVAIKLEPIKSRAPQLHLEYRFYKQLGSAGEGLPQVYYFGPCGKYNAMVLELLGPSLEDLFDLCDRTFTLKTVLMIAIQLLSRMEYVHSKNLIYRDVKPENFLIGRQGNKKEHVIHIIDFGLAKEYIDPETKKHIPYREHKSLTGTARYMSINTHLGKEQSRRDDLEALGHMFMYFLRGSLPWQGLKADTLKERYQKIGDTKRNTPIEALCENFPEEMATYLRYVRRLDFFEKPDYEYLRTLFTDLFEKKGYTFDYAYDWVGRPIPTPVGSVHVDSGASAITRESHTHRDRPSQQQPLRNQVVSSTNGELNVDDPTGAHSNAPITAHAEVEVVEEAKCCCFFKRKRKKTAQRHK
Sequence of STK11 (human) (Q15831 whole entry, looked up): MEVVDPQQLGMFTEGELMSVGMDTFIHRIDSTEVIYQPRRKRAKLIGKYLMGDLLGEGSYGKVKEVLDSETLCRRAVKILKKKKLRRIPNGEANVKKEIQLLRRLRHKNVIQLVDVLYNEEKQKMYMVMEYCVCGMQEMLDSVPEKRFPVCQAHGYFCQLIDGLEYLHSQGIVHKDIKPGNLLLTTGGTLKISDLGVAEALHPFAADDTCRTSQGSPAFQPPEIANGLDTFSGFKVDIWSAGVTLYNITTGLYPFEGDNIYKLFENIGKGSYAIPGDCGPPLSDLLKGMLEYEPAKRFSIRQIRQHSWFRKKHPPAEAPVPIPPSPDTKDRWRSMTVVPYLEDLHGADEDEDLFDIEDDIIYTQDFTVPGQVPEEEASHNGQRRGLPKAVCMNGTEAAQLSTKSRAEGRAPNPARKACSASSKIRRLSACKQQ
Sequence of AURKB (human) (Q96GD4 whole entry, looked up): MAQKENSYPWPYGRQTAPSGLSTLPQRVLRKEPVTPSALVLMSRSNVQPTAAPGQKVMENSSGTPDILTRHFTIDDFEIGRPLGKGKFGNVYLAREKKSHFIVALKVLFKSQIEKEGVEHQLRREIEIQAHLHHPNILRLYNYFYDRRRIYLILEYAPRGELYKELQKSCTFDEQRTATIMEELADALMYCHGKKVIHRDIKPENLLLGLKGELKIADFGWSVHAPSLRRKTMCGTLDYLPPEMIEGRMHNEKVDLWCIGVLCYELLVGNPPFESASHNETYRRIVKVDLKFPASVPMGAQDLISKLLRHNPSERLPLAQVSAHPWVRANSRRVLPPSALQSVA
Sequence of CAMKK1 (human) (Q8N5S9 whole entry, looked up): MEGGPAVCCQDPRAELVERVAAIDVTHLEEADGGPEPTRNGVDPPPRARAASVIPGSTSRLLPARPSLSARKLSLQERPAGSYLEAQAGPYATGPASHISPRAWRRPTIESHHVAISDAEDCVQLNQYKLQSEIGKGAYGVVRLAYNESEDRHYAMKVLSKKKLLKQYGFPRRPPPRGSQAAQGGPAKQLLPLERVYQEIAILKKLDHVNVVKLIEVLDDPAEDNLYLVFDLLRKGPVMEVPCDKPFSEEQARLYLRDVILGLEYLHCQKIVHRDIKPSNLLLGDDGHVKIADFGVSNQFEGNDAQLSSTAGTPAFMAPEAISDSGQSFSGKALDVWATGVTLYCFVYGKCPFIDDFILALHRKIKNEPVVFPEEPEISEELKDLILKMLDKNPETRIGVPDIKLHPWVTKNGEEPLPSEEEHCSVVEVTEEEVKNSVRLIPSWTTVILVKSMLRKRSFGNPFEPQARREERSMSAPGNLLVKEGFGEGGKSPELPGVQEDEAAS
Sequence of PHKG2 (human) (P15735 whole entry, looked up): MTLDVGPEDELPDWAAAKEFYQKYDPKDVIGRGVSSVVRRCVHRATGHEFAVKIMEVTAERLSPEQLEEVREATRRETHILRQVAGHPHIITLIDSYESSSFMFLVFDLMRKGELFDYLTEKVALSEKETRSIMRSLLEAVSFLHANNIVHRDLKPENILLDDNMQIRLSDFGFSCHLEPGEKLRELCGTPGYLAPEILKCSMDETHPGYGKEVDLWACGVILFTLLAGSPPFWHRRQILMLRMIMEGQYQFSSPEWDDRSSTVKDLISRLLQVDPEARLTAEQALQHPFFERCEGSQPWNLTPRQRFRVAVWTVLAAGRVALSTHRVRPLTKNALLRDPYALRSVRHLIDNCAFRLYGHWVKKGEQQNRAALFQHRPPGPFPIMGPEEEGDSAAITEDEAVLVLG

Nc1cccc(-c2cc(/C=C3\SC(=O)NC3=O)c[nH]c2=O)c1 was tested. Which kinase still bound, per cent of control [1] did it give?
The kinase still bound, per cent of control was 4.8%.

What about the kinase still bound, per cent of control (AURKB (human)) of the same compound?
The kinase still bound, per cent of control was 8%.

What about the kinase still bound, per cent of control (CDK7 (human)) of the same compound?
The kinase still bound, per cent of control was 8.8%.

What about the kinase still bound, per cent of control (ULK2 (human)) of the same compound?
Its kinase still bound, per cent of control is 33%.

And the kinase still bound, per cent of control (STK11 (human))?
Its kinase still bound, per cent of control is 19%.

And the kinase still bound, per cent of control (RIOK3 (human))?
Its kinase still bound, per cent of control is 8.6%.

What about the kinase still bound, per cent of control [2] of the same compound?
Its kinase still bound, per cent of control is 21%.

And the kinase still bound, per cent of control (DAPK2 (human))?
The kinase still bound, per cent of control was 0.2%.

What about the kinase still bound, per cent of control (PHKG2 (human)) of the same compound?
The kinase still bound, per cent of control was 11%.

And the kinase still bound, per cent of control (CLK2 (human))?
The kinase still bound, per cent of control was 0%.

And the kinase still bound, per cent of control (MYLK3 (human))?
Its kinase still bound, per cent of control is 2%.

And the kinase still bound, per cent of control (ACVR2B (human))?
Its kinase still bound, per cent of control is 10%.

What about the kinase still bound, per cent of control (DYRK1B (human)) of the same compound?
The kinase still bound, per cent of control was 0.4%.

What about the kinase still bound, per cent of control (STK17A (human)) of the same compound?
Its kinase still bound, per cent of control is 0.3%.

And the kinase still bound, per cent of control (STK16 (human))?
The kinase still bound, per cent of control was 9.3%.

What about the kinase still bound, per cent of control (CHUK (human)) of the same compound?
The kinase still bound, per cent of control was 30%.

What about the kinase still bound, per cent of control (MAP4K2 (human)) of the same compound?
The kinase still bound, per cent of control was 30%.

What about the kinase still bound, per cent of control (PIM3 (human)) of the same compound?
Its kinase still bound, per cent of control is 5.4%.

And the kinase still bound, per cent of control (RIOK1 (human))?
The kinase still bound, per cent of control was 9.8%.

What about the kinase still bound, per cent of control (CSNK1G1 (human)) of the same compound?
The kinase still bound, per cent of control was 19%.

And the kinase still bound, per cent of control (PIM2 (human))?
The kinase still bound, per cent of control was 1%.

And the kinase still bound, per cent of control (CAMKK1 (human))?
Its kinase still bound, per cent of control is 3.6%.

What about the kinase still bound, per cent of control (MAPK15 (human)) of the same compound?
Its kinase still bound, per cent of control is 0.55%.

And the kinase still bound, per cent of control (CLK4 (human))?
The kinase still bound, per cent of control was 16%.

What about the kinase still bound, per cent of control (TAOK1 (human)) of the same compound?
Its kinase still bound, per cent of control is 21%.

And the kinase still bound, per cent of control (DMPK (human))?
Its kinase still bound, per cent of control is 27%.
